Source: patent publication US20250137054A1, “COMPOSITION AND METHOD FOR EVALUATING RESPONSIVENESS OF EDARAVONE” (MITSUBISHI TANABE PHARMA CORPORATION, priority 2022, published 2025)

Legend:
[1] = test system: disease model cells (neurons derived from the 1464R cell line forcibly expressing wild-type and mutant TDP-43); assay: Evaluation of cell protection using chromogenic substrate (Cell Counting Kit-8), with EA; type: cell-based, rat; details: Eda 1-200 μmol/L 24 h, then EA 20 μmol/L 24 h; vs Comparative Example 1 (FIG. 3)
Experimental: Using both vectors (a) and (b), the differentiated cell line in the infection medium was infected with adenovirus at a multiplicity of infection of 50, and cultured for 24 hours. As a result, neurons derived from the 1464R cell line, in which both wild-type and mutant TDP-43 were forcibly expressed intracellularly (hereinafter, also referred to as disease model cells), were obtained.
After that, a cell toxicity measurement kit (Cell Counting Kit-8, manufactured by DOJINDO) was used to expose the cells in each group according to a product protocol, and an amount of chromogenic substrate produced was measured by absorbance at 450 nm.
With this kit, the more viable cells present, the more chromogenic substrate is produced, resulting in a higher absorbance value at 450 nm. Therefore, a higher absorbance at 450 nm indicates a greater number of viable cells.
The data shown in FIG. 3 are all expressed as mean±standard error of the mean (SEM, n=4 for each). In FIG. 3, the symbol “##” indicates a statistically significant difference of p<0.01 compared to Comparative Example 1 (determined by Student t-test). In FIG. 3, the symbol “*” indicates a statistically significant difference of p<0.05 compared to Comparative Example 1, and the symbol “**” indicates a statistically significant difference of p<0.01 compared to Comparative Example 1 (both determined by Williams' multiple comparison test).

[2] = test system: disease model cells, TDP-43 (+); assay: Evaluation of cell protection using chromogenic substrate (2), without EA; type: cell-based, rat; details: Eda 50 or 100 μmol/L 96 h, no EA; vs Comparative Example 2 (FIG. 12)
Excerpt: Using the differentiated cell line prepared using the method of Example 1 (indicated as “TDP-43 (−)” in FIG. 12), an Eda-unexposed group (Reference Example 2) and a 96-hour Eda-exposed group (final concentration 100 μmol/L) (Reference Example 3) were each prepared.
Further, using the disease model cells prepared using the method of Example 1 (indicated as “TDP-43 (+)” in FIG. 12), an Eda-unexposed group (Comparative Example 2) and 96-hour Eda-exposed groups (final concentration 50 or 100 μmol/L) (Examples 5-1 and 5-2) were each prepared.
All of these were performed without containing EA.
After that, similar to Example 3-1 and the like, a cell toxicity measurement kit was used to expose the cells in each group according to a product protocol, and an amount of chromogenic substrate produced was measured by absorbance at 450 nm.
The data shown in FIG. 12 are all expressed as mean±standard error of the mean (SEM, n=4 for each). In FIG. 12, the symbol “##” indicates a statistically significant difference of p<0.01 compared to Comparative Example 2. In FIG. 12, the symbol “**” indicates a statistically significant difference of p<0.05 compared to Comparative Example 2. In FIG. 12, the symbol “$” indicates a statistically significant difference of p<0.05 compared to Reference Example 2 (all determined by Student t-test).

[3] = test system: TDP-43 in ALS patient-derived neurons; assay: TDP-43 localization evaluation, ALS patient-derived neurons; type: cell-based, human; details: edaravone treatment, after 24 hours, DMSO group = 100 (FIG. 15)
Excerpt: (§1) Human induced pluripotent stem (iPS) cells were induced from cells derived from an ALS patient and cells derived from a healthy individual using a conventional method. The cells derived from the ALS patient were used that are known to have an ALS risk mutation as a heterozygous mutation in the TARDBP gene. Each iPS cell was differentiated into a motor neuron (hereinafter, also simply referred to as a “neuron”) using a conventional method. […]
(§2) Intracellular localization of TDP-43 polypeptides was evaluated by immunofluorescence staining of neurons. […] After further nuclear staining, washing with PBS, and imaging under a fluorescence microscope were performed. The captured images were analyzed using Matlab (Mathworks), and fluorescence intensities of TDP-43 in a nuclear region and in a cytoplasmic region were respectively calculated. […]
(§3) Regarding the intracellular localization of TDP-43 polypeptides, the nuclear and cytoplasmic TDP-43 fluorescence intensities and the cytoplasmic/nuclear TDP-43 intensity ratios in ALS cells and healthy cells are shown in FIG. 15. […]

[4] = test system: TDP-43 in healthy individual-derived neurons; assay: TDP-43 localization evaluation, healthy individual-derived neurons; type: cell-based, human; details: edaravone treatment, DMSO group = 100 (FIG. 15)
Excerpt: as §1, §2, §3

## CC1=NN(c2ccccc2)C(=O)C1 [edaravone, 5-methyl-2-phenyl-2,4-dihydro-3H-pyrazol-3-one]
[1]
  absorbance at 450 nm (number of viable cells): increased in an Eda concentration-dependent manner
[2]
  number of viable cells (absorbance at 450 nm): higher number of viable cells
[3]
  cytoplasmic TDP-43 intensity: significantly decreased
  cytoplasmic/nuclear TDP-43 intensity ratio: significantly decreased
[4]
  effect of decreasing the cytoplasmic/nuclear TDP-43 intensity ratio: not observed
